Measurements as given in patent US9556179B2 (BRISTOL-MYERS SQUIBB COMPANY, priority 2012, dated 2017).

Tests used:
CK1δ = CK1δ (Homo sapiens (Human), UniProt P48730); assay: CK1δ kinase assay (Caliper LABCHIP electrophoretic separation of fluoresceinated peptide substrate and product); assay type: biochemical; details: 200 pM enzyme, 50 μM ATP, 22 hours at room temperature
In short: (§1)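 IC50 values were obtained by non-linear regression from eleven-concentration titrations. The kinase reactions were incubated for 22 hours at room temperature before termination with 35 mM EDTA.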

CK1ε = CK1ε (Homo sapiens (Human), UniProt P49674); assay: CK1ε kinase assay (Caliper LABCHIP electrophoretic separation of fluoresceinated peptide substrate and product); assay type: biochemical; details: 200 pM enzyme, 50 μM ATP, 22 hours at room temperature
In short: as §1

CK1ε, sequence (P49674 whole entry): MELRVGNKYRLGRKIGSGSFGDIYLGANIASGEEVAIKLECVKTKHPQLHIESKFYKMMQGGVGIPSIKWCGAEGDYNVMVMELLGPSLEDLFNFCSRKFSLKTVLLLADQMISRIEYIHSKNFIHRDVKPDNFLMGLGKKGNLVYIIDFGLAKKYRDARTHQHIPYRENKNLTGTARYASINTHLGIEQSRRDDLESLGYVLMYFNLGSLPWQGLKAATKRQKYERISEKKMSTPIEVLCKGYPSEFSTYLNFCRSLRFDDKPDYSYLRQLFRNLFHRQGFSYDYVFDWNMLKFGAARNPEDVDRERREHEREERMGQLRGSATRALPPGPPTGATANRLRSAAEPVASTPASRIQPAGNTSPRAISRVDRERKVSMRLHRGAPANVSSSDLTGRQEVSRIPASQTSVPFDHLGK
CK1δ, sequence (P48730 whole entry): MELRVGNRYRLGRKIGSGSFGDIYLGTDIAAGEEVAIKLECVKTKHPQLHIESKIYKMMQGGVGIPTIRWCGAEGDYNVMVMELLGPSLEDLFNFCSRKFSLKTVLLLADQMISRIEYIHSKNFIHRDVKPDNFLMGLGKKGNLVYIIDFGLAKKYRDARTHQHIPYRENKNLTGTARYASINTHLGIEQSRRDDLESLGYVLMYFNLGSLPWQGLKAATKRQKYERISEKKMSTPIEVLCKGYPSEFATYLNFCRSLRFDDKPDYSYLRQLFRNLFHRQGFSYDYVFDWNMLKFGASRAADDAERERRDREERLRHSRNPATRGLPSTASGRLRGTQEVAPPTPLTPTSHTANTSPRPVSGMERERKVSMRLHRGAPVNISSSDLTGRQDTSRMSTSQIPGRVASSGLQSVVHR

With Cn1cnc(-c2ccc(F)cc2)c1-c1ccc2nc(NC(=O)C(C)(C)C)cn2n1 [Compound 283, N-(6-(4-(4-fluorophenyl)-1-methyl-1H-imidazol-5-yl)imidazo[1,2-b]pyridazin-2-yl)pivalamide] the IC50 (CK1δ) was 0.545 nM and the IC50 (CK1ε) was 7.62 nM.
Cc1nc(-c2ccc(F)cc2)c(-c2ccc3nc(NC(=O)c4ccnc(F)c4)cn3n2)n1CC(F)F [Compound 284, N-(6-(1-(2,2-Difluoroethyl)-4-(4-fluorophenyl)-2-methyl-1H-imidazol-5-yl)imidazo[1,2b]-pyridazin-2-yl)-2-fluoroisonicotinamide] gave an IC50 (CK1δ) of 0.384 nM and an IC50 (CK1ε) of 2.02 nM.
O=C(Nc1cn2nc(-c3c(-c4ccc(F)cc4)nc(C4CC4)n3CC(F)F)ccc2n1)c1ccnc(F)c1 [Compound 285] gave an IC50 (CK1δ) of 0.245 nM and an IC50 (CK1ε) of 1.22 nM.
CCc1nc(-c2ccc(F)cc2)c(-c2ccc3nc(NC(=O)c4ccnc(F)c4)cn3n2)n1CC(F)F [Compound 286, N-(6-(1-(2,2-difluoroethyl)-2-ethyl-4-(4-fluorophenyl)-1H-imidazol-5-yl)imidazo[1,2-b]pyridazin-2-yl)-2-fluoroisonicotinamide] gave an IC50 (CK1δ) of 0.727 nM and an IC50 (CK1ε) of 6.78 nM.
Compound CC(C)c1nc(-c2ccc(F)cc2)c(-c2ccc3nc(NC(=O)c4ccnc(F)c4)cn3n2)n1CC(F)F [Compound 287, N-(6-(1-(2,2-difluoroethyl)-4-(4-fluorophenyl)-2-isopropyl-1H-imidazol-5-yl)imidazo[1,2-b]pyridazin-2-yl)-2-fluoroiso-nicotinamide] has an IC50 (CK1δ) of 0.776 nM and an IC50 (CK1ε) of 9.17 nM.
In the case of Cc1nc(-c2ccc(F)cc2)c(-c2ccc3nc(NC(=O)c4ccnc(F)c4)cn3n2)n1CCF [Compound 288, 2-Fluoro-N-(6-(1-(2-fluoroethyl)-4-(4-fluorophenyl)-2-methyl-1H-imidazol-5-yl)imidazo[1,2-b]pyridazin-2-yl)isonicotinamide], the IC50 (CK1δ) is reported as 0.11 nM and the IC50 (CK1ε) is reported as 0.222 nM.
Work on Cc1nc(-c2ccc(F)cc2)c(-c2ccc3nc(NC(=O)c4ccnc(F)c4)cn3n2)n1CC(F)(F)F [Compound 289, 2-fluoro-N-(6-(4-(4-fluorophenyl)-2-methyl-1-(2,2,2-trifluoroethyl)-1H-imidazol-5-yl)imidazo[1,2-b]pyridazin-2-yl)isonicotinamide] yielded an IC50 (CK1δ) of 0.613 nM and an IC50 (CK1ε) of 1.27 nM.
Work on Cc1nc(-c2ccc(F)c(F)c2)c(-c2ccc3nc(NC(=O)c4ccnc(F)c4)cn3n2)n1CCF [Compound 290, N-(6-(4-(3,4-difluorophenyl)-1-(2-fluoroethyl)-2-methyl-1H-imidazol-5-yl)imidazo[1,2-b]pyridazin-2-yl)-2-fluoroisonicotinamide] yielded an IC50 (CK1δ) of 0.412 nM and an IC50 (CK1ε) of 1.89 nM.
Cc1nc(-c2ccc(F)c(F)c2)c(-c2ccc3nc(NC(=O)c4ccnc(F)c4)cn3n2)n1CC(F)F [Compound 291, N-(6-(1-(2,2-difluoroethyl)-4-(3,4-difluorophenyl)-2-methyl-1H-imidazol-5-yl)imidazo[1,2-b]pyridazin-2-yl)-2-fluoroiso-nicotinamide] was tested, and the IC50 (CK1δ) was 0.388 nM and the IC50 (CK1ε) was 2.64 nM.
CCn1c(C)nc(-c2ccc(Cl)cc2)c1-c1ccc2nc(NC(=O)c3ccnc(F)c3)cn2n1 [Compound 292, N-(6-(4-(4-chlorophenyl)-1-ethyl-2-methyl-1H-imidazol-5-yl)imidazo[1,2-b]pyridazin-2-yl)-2-fluoroisonicotinamide] showed an IC50 (CK1δ) of 0.208 nM and an IC50 (CK1ε) of 1.81 nM.
Compound Cc1nc(-c2ccc(Cl)cc2)c(-c2ccc3nc(NC(=O)c4ccnc(F)c4)cn3n2)n1CCF [Compound 293, N-(6-(4-(4-chlorophenyl)-1-(2-fluoroethyl)-2-methyl-1H-imidazol-5-yl)imidazo[1,2-b]pyridazin-2-yl)-2-fluoroisonicotinamide] has an IC50 (CK1δ) of 0.109 nM and an IC50 (CK1ε) of 1.28 nM.
Cc1nc(-c2ccc(Cl)cc2)c(-c2ccc3nc(NC(=O)c4ccnc(F)c4)cn3n2)n1CC(F)F [Compound 294, N-(6-(4-(4-chlorophenyl)-1-(2,2-difluoroethyl)-2-methyl-1H-imidazol-5-yl)imidazo[1,2-b]pyridazin-2-yl)-2-fluoroiso-nicotinamide] showed an IC50 (CK1δ) of 0.208 nM and an IC50 (CK1ε) of 4.03 nM.
Work on Cc1nc(-c2ccc(Cl)cc2)c(-c2ccc3nc(NC(=O)c4ccnc(F)c4)cn3n2)n1CC(F)(F)F [Compound 295, N-(6-(4-(4-chlorophenyl)-2-methyl-1-(2,2,2-trifluoroethyl)-1H-imidazol-5-yl)imidazo[1,2-b]pyridazin-2-yl)-2-fluoroisonicotin-amide] yielded an IC50 (CK1δ) of 0.126 nM and an IC50 (CK1ε) of 5.95 nM.
With Cc1nc(-c2ccc(Cl)cc2)c(-c2ccc3nc(NC(=O)c4ccnc(F)c4)cn3n2)n1C [Compound 296, N-(6-(4-(4-chlorophenyl)-1,2-dimethyl-1H-imidazol-5-yl)imidazo[1,2-b]pyridazin-2-yl)-2-fluoroisonicotinamide] the IC50 (CK1δ) was 0.519 nM and the IC50 (CK1ε) was 10.2 nM.
With Cc1cc(-c2nc(C)n(CC(F)F)c2-c2ccc3nc(NC(=O)c4ccnc(F)c4)cn3n2)ccc1F [Compound 297] the IC50 (CK1δ) was 0.354 nM and the IC50 (CK1ε) was 2.26 nM.
Cc1cc(-c2nc(C)n(C)c2-c2ccc3nc(NC(=O)c4ccnc(F)c4)cn3n2)ccc1F [Compound 298, 2-fluoro-N-(6-(4-(4-fluoro-3-methylphenyl)-1,2-dimethyl-1H-imidazol-5-yl)imidazo[1,2-b]pyridazin-2-yl)isonicotinamide] was tested, and the IC50 (CK1δ) was 0.714 nM and the IC50 (CK1ε) was 5.29 nM.
Cc1cc(-c2nc(C)n(CCF)c2-c2ccc3nc(NC(=O)c4ccnc(F)c4)cn3n2)ccc1F [Compound 299, 2-fluoro-N-(6-(4-(4-fluoro-3-methylphenyl)-1-(2-fluoroethyl)-2-methyl-1H-imidazol-5-yl)imidazo[1,2-b]pyridazin-2-yl) isonicotinamide] showed an IC50 (CK1δ) of 0.186 nM and an IC50 (CK1ε) of 0.76 nM.
In the case of Cc1ccc(-c2nc(C)n(C)c2-c2ccc3nc(NC(=O)c4ccnc(F)c4)cn3n2)cc1 [Compound 300, N-(6-(1,2-dimethyl-4-(p-tolyl)-1H-imidazol-5-yl)imidazo[1,2-b]pyridazin-2-yl)-2-fluoroiso-nicotinamide], the IC50 (CK1δ) is reported as 1.8 nM and the IC50 (CK1ε) is reported as 34.3 nM.
Compound Cc1nc(-c2ccc(F)cc2)c(-c2ccc3nc(NC(=O)c4cncs4)cn3n2)n1C [Compound 303, N-(6-(4-(4-fluorophenyl)-1,2-dimethyl-1H-imidazol-5-yl)imidazo[1,2-b]pyridazin-2-yl)thiazole-5-carboxamide] has an IC50 (CK1δ) of 3.9 nM and an IC50 (CK1ε) of 4.4 nM.
Cc1nc(-c2ccc(F)cc2)c(-c2ccc3nc(NC(=O)c4coc(-c5ccncc5)n4)cn3n2)n1C [Compound 304, N-(6-(4-(4-fluorophenyl)-1,2-dimethyl-1H-imidazol-5-yl)imidazo[1,2-b]pyridazin-2-yl)-2-(pyridin-4-yl)oxazole-4-carboxamide] showed an IC50 (CK1δ) of 3.44 nM and an IC50 (CK1ε) of 48.5 nM.
With Cc1nc(-c2ccncc2)sc1C(=O)Nc1cn2nc(-c3c(-c4ccc(F)cc4)nc(C)n3C)ccc2n1 [Compound 308, N-(6-(4-(4-fluorophenyl)-1,2-dimethyl-1H-imidazol-5-yl)imidazo[1,2-b]pyridazin-2-yl)-4-methyl-2-(pyridin-4-yl) thiazole-5-carboxamide] the IC50 (CK1δ) was 0.322 nM and the IC50 (CK1ε) was 5.26 nM.
Cc1nc(-c2ccc(F)cc2)c(-c2ccc3nc(NC(=O)c4cnc5ccccc5n4)cn3n2)n1C [Compound 310, N-(6-(4-(4-fluorophenyl)-1,2-dimethyl-1H-imidazol-5-yl)imidazo[1,2-b]pyridazin-2-yl) quinoxaline-2-carboxamide] showed an IC50 (CK1δ) of 1.03 nM and an IC50 (CK1ε) of 8.37 nM.
